Results: patent US4870097A, “Pharmaceutical use of derivatives of tryptophan” (priority 1984, dated 1989)

Assays:
[1] = system: analgesic activity of DALA; assay: Tail Flick test: increase in the analgesic activity of DALA (i.c.v.); assay type: in vivo, rats; parameters: analgesic activity (Tail Flick), 10' / analgesic activity (Tail Flick), 20' / analgesic activity (Tail Flick), 30' / analgesic activity (Tail Flick), 45' / analgesic activity (Tail Flick), 60' / analgesic activity (Tail Flick), AVERAGE: scale not given here; settings: for analgesic activity (Tail Flick), AVERAGE: average 10'-60'
Experimental: In order to check one of the possible mechanisms for the action of the compounds of the invention, that is, their possible inhibition of the enzymatic degradation of endogenous enkephalins, the following experiment was carried out:
A cannula was implanted in the right lateral ventricle of male rats having a weight of 150-200 g (groups of five animals were used) in order to allow the intracerebroventricular (i.c.v.) administration of drugs according to the method of Noble et al (Life Science 6, (1970) 281-291).
The animals were subsequently treated (i.c.v.) with 3 μg of D-ala-methionine-enkephalinamide (DALA) immediately after an injection (i.c.v.) of the compounds under study at the doses given in Table 4. Analgesia was tested for by the Tail Flick method already mentioned, at the times

[2] = system: guinea pig gall bladder contracted with CCK-8; assay: Anti-CCK activity on guinea pig gall bladders in vitro; assay type: biochemical; settings: CCK-8 10 ng/ml, concentration antagonising 50% of contracting effect
In short: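 Longitudinal gall bladder strips in Krebs at 32° C, gassed with O2/CO2 95:5, were contracted with CCK-8 at 10 ng/ml and contractions recorded isometrically via force transducer. ED50 in mcg/ml is the compound concentration antagonising 50% of CCK contraction, derived by regression over at least three experiments.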

[3] = system: tolerance induced by morphine; assay: Antagonism to the development of tolerance to repeated administration of morphine HCl (tail flick); assay type: in vivo, rats; settings: for percentage variation in the latency time, day 0 / percentage variation in the latency time, day 1 / percentage variation in the latency time, day 2 / percentage variation in the latency time, day 3 / percentage variation in the latency time, day 4 / percentage variation in the latency time, day 5 / percentage variation in the latency time, day 6 / percentage variation in the latency time, day 7: 3 mg/kg i.p. + morphine HCl 3 mg/kg i.p. (row Morphine: alone); for Area subtended (1) / regression line % Effect versus Day: 3 mg/kg + morphine (row Morphine: alone)
Experimental: Several of the compounds of the invention were examined to determine any capacity to antagonise the development of tolerance induced by morphine. Groups of six male rats having a weight of about 200-250 were used.
At intervals of 24 hours from the first treatment (time 0), each animal (except for the control group treated with a physiological solution) received 3 mg/kg of morphine hydrochloride i.p. together with 3 mg/kg i.p. of the compounds indicated (with the exception of the group treated solely with morphine).
The determination of the threshold for the pain stimulus was effected at 15°, 30', 45' and 60' intervals from the treatment by the "tail flick" test.

[4] = system: analgesic activity of morphine; assay: Tail Flick Test: increase in the analgesic effect of morphine; assay type: in vivo, rats; settings: for M(10'-90') average percentage variation: mean 10'-90'
In short: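 Male non-fasted rats, 150-200 g; heat source (75 °C) on tail, latency to tail movement timed, 8 s cut-off. Measured before and 10, 20, 30, 45, 60, 90 min after analgesic dosing; percentage variation per animal, averaged over groups of five.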

[5] = compound 10 mg/kg i.p. + morphine 2 mg/kg (row Morphine: alone), ± S.E.
[6] = compound 10 mg/kg i.p. + morphine 2 mg/kg (row Morphine: alone)

| Structure (SMILES) | analgesic activity (Tail Flick), 10' ([1]; 10(D) + 0.001 mg/kg (ICV)) | analgesic activity (Tail Flick), 20' ([1]; 10(D) + 0.001 mg/kg (ICV)) | analgesic activity (Tail Flick), 30' ([1]; 10(D) + 0.001 mg/kg (ICV)) | analgesic activity (Tail Flick), 45' ([1]; 10(D) + 0.001 mg/kg (ICV)) | analgesic activity (Tail Flick), 60' ([1]; 10(D) + 0.001 mg/kg (ICV)) | analgesic activity (Tail Flick), AVERAGE ([1]; 10(D) + 0.001 mg/kg (ICV)) | analgesic activity (Tail Flick), 10' ([1]; 10(D) + 0.01 mg/kg (ICV)) | analgesic activity (Tail Flick), 20' ([1]; 10(D) + 0.01 mg/kg (ICV)) | analgesic activity (Tail Flick), 30' ([1]; 10(D) + 0.01 mg/kg (ICV)) | analgesic activity (Tail Flick), 45' ([1]; 10(D) + 0.01 mg/kg (ICV)) | analgesic activity (Tail Flick), 60' ([1]; 10(D) + 0.01 mg/kg (ICV)) | analgesic activity (Tail Flick), AVERAGE ([1]; 10(D) + 0.01 mg/kg (ICV)) | Anti CCK-8 activity, ED50 [2] [mg/L] | percentage variation in the latency time, day 0 [3] [%] | percentage variation in the latency time, day 1 [3] [%] | percentage variation in the latency time, day 2 [3] [%] | percentage variation in the latency time, day 3 [3] [%] | percentage variation in the latency time, day 4 [3] [%] | percentage variation in the latency time, day 5 [3] [%] | percentage variation in the latency time, day 6 [3] [%] | further results |
| --- | --- | --- | --- | --- | --- | --- | --- | --- | --- | --- | --- | --- | --- | --- | --- | --- | --- | --- | --- | --- | --- |
| CCCCCCc1ccc(C(=O)N[C@@H](Cc2c[nH]c3ccccc23)C(=O)O)cc1 [Compound 26] | 62.44 | 73.94 | 67.94 | 40.38 | 34.06 | 55.75 ± 7.84 | 80.54 | 82.66 | 70.42 | 45.9 | 68.9 | 69.68 ± 6.53 | 152.1 | 74.14 | 45.73 | 59.5 | 51.52 | 43.40 | 37.60 | 21.43 | percentage variation in the latency time, day 7 [3]: 29.75%; Area subtended (1) ([3]; days 0-7): 366.7 Effect-Day; regression line % Effect versus Day ([3]; days 0-7): % Effect = - 6.02 Day + 66.5; Area 1 / Area Morphine ([3]; days 0-7, 3 mg/kg + morphine, ratio to morphine alone): 2.61; percentage variation in the latency of the pain sensation, 10' [4, 5]: 100.0 ± 0.0%; percentage variation in the latency of the pain sensation, 20' [4, 5]: 87.6 ± 9.2%; percentage variation in the latency of the pain sensation, 30' ([4]; 30', compound 10 mg/kg i.p. + morphine 2 mg/kg (row Morphine: alone), ± S.E.): 100.0 ± 0.0%; percentage variation in the latency of the pain sensation, 45' [4, 5]: 100.0 ± 0.0%; percentage variation in the latency of the pain sensation, 60' [4, 5]: 100.0 ± 0.0%; percentage variation in the latency of the pain sensation, 90' [4, 5]: 84.5 ± 9.8%; M(10'-90') average percentage variation [4, 6]: 96.3%; Potency ratio relative to morphine alone ([4]; rat, in vivo): 3.2 |
| O=C(N[C@@H](Cc1c[nH]c2ccccc12)C(=O)O)OC(c1ccccc1)c1ccccc1 [Compound 33] | 64.12 | 77.56 | 72.7 | 45.76 | 57.38 | 63.50 ± 5.63 | 81.48 | 100.00 | 80.22 | 59.24 | 55.88 | 75.36 ± 8.08 | 76.3 | 50.12 | 67.02 | 51.47 | 34.92 | 67.3 | 61.08 | 20.02 | percentage variation in the latency time, day 7 [3]: 10.33%; Area subtended (1) ([3]; days 0-7): 382.1 Effect-Day; regression line % Effect versus Day ([3]; days 0-7): % Effect = - 5.38 Day + 64.12; Area 1 / Area Morphine ([3]; rat, in vivo, 3 mg/kg): 2.72; percentage variation in the latency of the pain sensation, 10' [4, 5]: 100.0 ± 0.0%; percentage variation in the latency of the pain sensation, 20' [4, 5]: 87.6 ± 12.4%; percentage variation in the latency of the pain sensation, 45' [4, 5]: 97.0 ± 3.0%; percentage variation in the latency of the pain sensation, 60' [4, 5]: 65.7 ± 21.4%; percentage variation in the latency of the pain sensation, 90' [4, 5]: 58.1 ± 21.7%; M(10'-90') average percentage variation [4, 6]: 82.9%; Potency ratio relative to morphine alone ([4]; rat, in vivo): 2.78; percentage variation in the latency of the pain sensation, 30' ([4]; rat, in vivo): 89.2 ± 10.8 |
